No end group written: not given here.
Assays:
Assay in all cases: biochemical
Assay type in all cases: binding
HLA-A3.2 (A*0301) = HLA-A3.2 (A*0301) (Homo sapiens, UniProt P04439)
A*3301 = A*3301 (Homo sapiens, UniProt P04439, A270S/D185E/E176V/E277Q/E87N/F33T/G231S/H175R/I121M/I218V/I322F/K168Q/K210R/L300P/L318F/M331R/P217A/Q86R/Q94H/R138Q/T323A/T345S/T97I/V358M/Y195H)
A31 (A*3101) = A31 (A*3101) (Homo sapiens, UniProt P04439, A270S/D185E/E176V/E277Q/F33T/G231S/G80R/H175R/I121M/I218V/I322F/K168Q/L300P/L318F/M331R/P217A/Q94H/R138Q/T323A/T345S/T97I/V358M)
A*6801 = A*6801 (Homo sapiens, UniProt P04439, A269V/D185E/E176V/E277Q/E87N/F33Y/G231S/I121M/I166T/I218V/L180W/L300P/L318F/N151K/P208A/P217A/Q86R/R169H/T345S)
HLA-A11 (A*1101) = HLA-A11 (A*1101) (Homo sapiens, UniProt P04439, A114D/D185E/E176A/F33Y/L180Q/S129P/T187R)

Substance	IC50 (HLA-A3.2 (A*0301)) [nM]	IC50 (A*3301) [nM]	IC50 (A31 (A*3101)) [nM]	IC50 (A*6801) [nM]	A*0301 binding (HLA-A3.2 (A*0301); Table 11, binding value, no unit)	A*1101 binding (HLA-A11 (A*1101))	IC50 (HLA-A11 (A*1101)) [nM]
KQLQHTPSPY [Peptide 88.0204]	117	> 20000	> 20000	> 20000			
PVRPQVPLR [Peptide 66.0063]	> 20000						
RFHNIAGHYR [Peptide 78.0097]	2460	99	11	151			
ILTAFNSSHK [Peptide 1589.03]	12	> 20000		6390			
LLCGPANTGK [Peptide 88.0195]	137	> 20000	3650	1900			
RILSTCLGR [Peptide 9017.0073]	58	1450	8.5	1450			
MLIQPPKLR [Peptide 88.0340]	16200	146	699	25			
SQWIKYRCSK [Peptide 88.0174]	944	3400	323	> 20000			
SFTDLVRNFK [Peptide 88.0143]	1590	56	47	22			
AFKDLFVVYK [Peptide 88.0024]	3260	93	32	576			
F119.01 (MSLQRQFLR) [Peptide F119.01]					0.2000	0.7200	
SQISYWQLIR [Peptide 88.0220]	2610	> 20000		934			
TSNECTNNK [Peptide 1589.31]	4790	> 20000	8910				
SFFSRTWCK [Peptide 88.0363]		4	12	66			16
GVRRATTSTK [Peptide 88.0210]	6.1	> 20000	3630	18300			
LTYDSEWQR [Peptide 1589.04]	888			14			
VQFKSECEK [Peptide 88.0419]		4770	2680	> 20000			20
VTVYDGVPVWK [Peptide 1539.09]		> 20000	18300	362			19

Substance	IC50 (HLA-A3.2 (A*0301)) [nM]	IC50 (A*3301) [nM]	IC50 (A31 (A*3101)) [nM]	IC50 (A*6801) [nM]	A*0301 binding (HLA-A3.2 (A*0301); Table 11, binding value, no unit)	A*1101 binding (HLA-A11 (A*1101))	IC50 (HLA-A11 (A*1101)) [nM]
GTRQARKNR [Peptide 9017.0071]		5070	24	> 20000			8350
SVCMGGMNR [Peptide 1556.60]	157	78	92				
KISEYRHYQY [Peptide 1571.14]		> 20000	7220	11700			392
KLFLKGVPKK [Peptide 1587.40]	16	> 20000	1040	> 20000			
KQIVMFLRY [Peptide 88.0330]		6400	4390	2260			97
NTKANILYK [Peptide 88.0358]	2120	693		100			
EFTAFLVAFK [Peptide 88.0193]	7480	127		980			
YLALTALIK [Peptide 9017.0097]	235	> 20000	> 20000	5900			
NTNAGTDPR [Peptide 88.0372]	1120	418	7020	50			
DFISFLSYFK [Peptide 88.0188]		5.7	2630	1.5			30
GQVDYYGLYY [Peptide 1589.02]		> 20000	5400	> 20000			53
GQWIQSRCEK [Peptide 88.0166]	320	4920		> 20000			
RAHSSHLR [Peptide 1556.71]	1910		40	1720			
EVHIPLGDAR [Peptide 9017.0217]	9390		9920	9.5			
TVSATQIVR [Peptide 1589.26]	2540	645	213	14			
NTMHYTNWK [Peptide 1589.16]		402	4920	11			11
WFYVQAIVDK [Peptide 88.0140]		> 20000	> 20000	19500			12900
IVVSAELPK [Peptide 1556.19]		> 20000	> 20000	218			93

— patent US9340577B2, “HLA binding motifs and peptides and their uses” (priority 1992, dated 2016)
